# Measured values: ChEMBL document CHEMBL1149050, “An antifungal polyacetylenic compound from the culture filtrate of the fungus Trametes pubescens” (1994)
# Experiments:
# Type in all cases: functional
# [1] = system: Aspergillus niger; assay: Inhibition of spore germination of Aspergillus niger DSM737 after 24 hrs at 27 degC by serial dilution method; details: DSM737, 24 h
# [2] = system: Agrobacterium tumefaciens; assay: Antibacterial activity against Agrobacterium tumefaciens ATCC 23308 after 24 hrs at 37 degC by serial dilution method; details: ATCC 23308, 24 h
# [3] = system: Aspergillus ochraceus; assay: Inhibition of spore germination of Aspergillus ochraceus DSM63304 after 24 hrs at 27 degC by serial dilution method
# [4] = system: Bacillus cereus; assay: Antibacterial activity against Bacillus cereus DSM318 after 24 hrs at 37 degC by serial dilution method; details: DSM318, 24 h
# [5] = system: Staphylococcus aureus; assay: Antibacterial activity against Staphylococcus aureus ATCC 13709 after 24 hrs at 37 degC by serial dilution method; details: ATCC 13709, 24 h
# [6] = system: Candida albicans; assay: Antifungal activity against Candida albicans ATCC 10231 after 24 hrs at 37 degC by serial dilution method; details: ATCC 10231, 24 h
# [7] = system: Rhodotorula glutinis; assay: Antifungal activity against Rhodotorula glutinis DSM70398 after 24 hrs at 27 degC by serial dilution method
# [8] = system: Candida tropicalis; assay: Antifungal activity against Candida tropicalis DSM1346 after 24 hrs at 37 degC by serial dilution method
compound,measurement,setting,value
CC#CC#CC#C[C@@H]1O[C@@H]1CO (relative stereo),MIC,[1],1 µg/mL
same,MIC,[2],> 100 µg/mL
same,MIC,[3],1 µg/mL
same,MIC,[4],> 100 µg/mL
same,MIC,[5],> 100 µg/mL
same,MIC,[6],50 µg/mL
same,MIC,[7],10 µg/mL
same,MIC,[8],50 µg/mL
